Measurements taken from patent US11673965B2, “Method of treating metastatic triple negative breast cancer with radiotherapy combined with phosphatidyl inositol-3 kinase delta/gamma inhibitors and anti-PD-1 antibodies” (Seoul National University R&DB Foundation, priority 2019, dated 2023).

Tested on: 4T1-luc triple negative breast cancer cells
Experiment: Size change of tumor in triple negative breast cancer allograft mouse model
Format: in vivo, mouse (BALB/c)
Conditions: 31st day; 4T1-luc allograft; duvelisib 4 mg/kg and/or PD-1 blockade 10 mg/kg by injection 6 times; RT 8 Gy×3
Protocol: A triple negative breast cancer cell line (4T1-luc) was cultured in DMEM (Dulbecco's Modified Eagle's Medium, CORNING™) medium containing 10% (v/v) fetal bovine serum (FBS) and 1% (w/v) Penicillin-Streptomycin, using a cell culture flask, in a thermostat cell culture device under the condition of 37° C., 5% CO2.
6×10^5 4T1-luc triple negative breast cancer cells prepared in Example 1-1 were injected to the right hindlimb of a BALB/c female age standard (8 weeks) mice. At the 10th day after injecting each of the cancer cells, the mice with the tumor volume up to 40 mm^3 were selected, and were used for later experiments.
The triple negative breast cancer (TNBC) mouse model prepared by the method of Example 1-2 was assigned to 7 groups in total from the 10th day after cancer cell transplantation, and each treatment method was performed, and it was grouped into 7 groups so that the tumor mean volume of 7 mice was 40 mm^3 per group, and were used for later experiments.
Each treatment was progressed for 31 days after tumor transplantation. […]
On the day of each treatment, the size of tumor, the length and width were measured using Vernier caliper, and then the volume (mm^3) of tumor was calculated by the method of the following equation 1. […]

C[C@H](Nc1ncnc2nc[nH]c12)c1cc2cccc(Cl)c2c(=O)n1-c1ccccc1 [PI3K γ δ inhibitor, duvelisib]
Mean tumor volume: 786.59 mm^3
